# Like-named read-outs stand apart in the source and are kept apart here.
# What was measured:
# MTB strain H37Rv [1] = format: cell-based, Mycobacterium tuberculosis
# MTB strain H37Rv [2] = format: cell-based, Mycobacterium tuberculosis; remark: listed apart in the source
# MTB strain H37Rv [3] = format: cell-based, Mycobacterium tuberculosis; remark: listed apart in the source
# [4] = tested on: tuberculosis bacilli in the lungs; assay: Chronic murine infection model, efficacy versus duration of infection; format: in vivo, mouse
# [5] = cited from earlier work
# [6] = cited from earlier work; remark: listed apart in the source
# MTB strain H37Rv [7] = tested on: MTB strain H37Rv; parameters: species or system C57/BL6 mice; settings: mouse, in vivo
# MTB = settings: against MTB; cited from earlier work
# [8] = renal and ototoxicity, parenteral use; cited from earlier work
# [9] = 10 times MIC, after 18-24 hours of incubation, stationary phase
Molecule,reduction of CFUs (MTB strain H37Rv [1]),"RLU reduction, stationary phase (MTB strain H37Rv [2])","RLU reduction, log phase growth (MTB strain H37Rv [3])",decrease in RLU from untreated cultures at peak efficacy (MTB strain H37Rv [3]),time at which an effect begins (MTB strain H37Rv [2]),"RLU reduction, stationary phase (MTB strain H37Rv [2]; [9])",time of peak efficacy (RLU endpoint) (MTB strain H37Rv [3]),reduction of bacillary load in the lungs ([4]; 13 weeks post infection),reduction of lung CFU ([4]; two weeks post infection),solubility in water [5],"maximum serum concentration (Cmax) ([6]; human, reached two hours after intramuscular injection)",oral absorption ([6]; oral),"reduction in efficacy from log phase cultures (MTB strain H37Rv [2]; stationary versus log phase, RLU at 24 hrs)","reduction in lung CFU, aerosol treated group (MTB strain H37Rv [7])","reduction in lung CFU, subcutaneous administered group (MTB strain H37Rv [7]; sc)",efficacy compared with isoniazid and rifampicin (MTB strain H37Rv [3]),minimum inhibitory concentration (MIC) (MTB),patients in whom toxicities occur [8]
CO[C@H]1/C=C/O[C@@]2(C)Oc3c(C)c(O)c4c(O)c(c(/C=N/N5CCN(C)CC5)c(O)c4c3C2=O)NC(=O)/C(C)=C\C=C\[C@H](C)[C@H](O)[C@@H](C)[C@@H](O)[C@@H](C)[C@H](OC(C)=O)[C@@H]1C [rifampicin],0.5 logs,0.3 logs,2.25 logs,3.5 log,–,–,–,–,–,–,–,–,–,–,–,–,–,–
NNC(=O)c1ccncc1 [isoniazid],no effect,–,–,~1.5 log,48 h,no significant effect,72 h,0.5 logs,2 logs,–,–,–,–,–,–,–,–,–
Capreomycin,2.5 logs,–,approximately 2 logs,3.5 log,–,approximately 2 logs,–,–,–,soluble in water,25.0 µg/mL,quite poor,~15%,~2.5 logs,1 log,superior to that of isoniazid and is as efficacious as rifampicin,2.5 mg/L,up to 10 % of patients
